Source: patent publication US20250282799A1, “SUBSTITUTED PYRIDO[4,3-d]PYRIMIDINES AS KRAS MODULATORS” (Alterome Therapeutics, Inc., priority 2023, published 2025)

System: KRAS G12V dependent lung adenocarcinoma cell line, NCI-H441
Assay: Cellular pERK (Thr202/Tyr204) FRET/HTRF assay
Format: cell-based
Conditions: Homo sapiens, NCI-H441 cells (KRAS G12V)
Outline: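 IC50 reflects inhibition of ERK1/2 Thr202/Tyr204 phosphorylation, quantified by HTRF after a 1 hr treatment of KRAS G12V-driven NCI-H441 cells. DMSO served as negative control.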

Compound | IC50 (NCI-H441, pERK HTRF) [nM] | IC50 (pERK HTRF) [nM]
[2H]C([2H])(F)Oc1c(F)c(F)cc2cc(N)cc(-c3ncc4c(N5CCCC[C@H]6[C@H](F)[C@H]65)nc(OC([2H])([2H])[C@@]56CCCN5C[C@H](F)C6)nc4c3F)c12 [Example 71, 6,7-Difluoro-4-(8-fluoro-4-((1S,7R,8S)-8-fluoro-2-azabicyclo[5.1.0]octan-2-yl)-2-(((2R,7aS)-2-fluorotetrahydro-1H-pyrrolizin-7a(5H)-yl)methoxy-d2)pyrido[4,3-d]pyrimidin-7-yl)-5-(fluoromethoxy-d2)naphthalen-2-amine] | < 50 | 
[2H]C([2H])(F)Oc1c(F)ccc2cccc(-c3ncc4c(N5CCCC[C@H]6[C@H](F)[C@H]65)nc(OC([2H])([2H])[C@@]56CCCN5C[C@H](F)C6)nc4c3F)c12 [Example 72, 8-Fluoro-7-(7-fluoro-8-(fluoromethoxy-d2)naphthalen-1-yl)-4-((1S,7R,8S)-8-fluoro-2-azabicyclo[5.1.0]octan-2-yl)-2-(((2R,7aS)-2-fluorotetrahydro-1H-pyrrolizin-7a(5H)-yl)methoxy-d2)pyrido[4,3-d]pyrimidine] | < 50 | 
[2H]C([2H])(Oc1nc(N2CCCC[C@H]3[C@H](F)[C@H]32)c2cnc(-c3cccc4ccc(F)c(OCF)c34)c(F)c2n1)[C@@]12CCCN1C[C@H](F)C2 [Example 73, 8-Fluoro-7-(7-fluoro-8-(fluoromethoxy)naphthalen-1-yl)-4-((1S,7R,8S)-8-fluoro-2-azabicyclo[5.1.0]octan-2-yl)-2-(((2R,7aS)-2-fluorotetrahydro-1H-pyrrolizin-7a(5H)-yl)methoxy-d2)pyrido[4,3-d]pyrimidine] | < 50 | 
[2H]C([2H])([2H])Oc1c(F)c(F)cc2cc(N)cc(-c3ncc4c(N5CCCO[C@H]6[C@H](F)[C@H]65)nc(OC([2H])([2H])[C@@]56CCCN5C[C@H](F)C6)nc4c3F)c12 [Example 74, 6,7-Difluoro-4-(8-fluoro-4-((1R,7S,8R)-8-fluoro-2-oxa-6-azabicyclo[5.1.0]octan-6-yl)-2-(((2R,7aS)-2-fluorotetrahydro-1H-pyrrolizin-7a(5H)-yl)methoxy-d2)pyrido[4,3-d]pyrimidin-7-yl)-5-(methoxy-d3)naphthalen-2-amine] | < 50 | 
[2H]C([2H])(Oc1nc(N2CCCO[C@H]3[C@H](F)[C@H]32)c2cnc(-c3cccc4ccc(F)c(C#C)c34)c(F)c2n1)[C@@]12CCCN1C[C@H](F)C2 [Example 75, (1R,7S,8R)-6-(7-(8-Ethynyl-7-fluoronaphthalen-1-yl)-8-fluoro-2-(((2R,7aS)-2-fluorotetrahydro-1H-pyrrolizin-7a(5H)-yl)methoxy-d2)pyrido[4,3-d]pyrimidin-4-yl)-8-fluoro-2-oxa-6-azabicyclo[5.1.0]octane] | < 50 | 
[2H]C([2H])(Oc1nc(N2CCCO[C@H]3[C@H](F)[C@H]32)c2cnc(-c3cccc4cc(F)c(F)c(C#C)c34)c(F)c2n1)[C@@]12CCCN1C[C@H](F)C2 [Example 76, (1R,7S,8R)-6-(7-(8-Ethynyl-6,7-difluoronaphthalen-1-yl)-8-fluoro-2-(((2R,7aS)-2-fluorotetrahydro-1H-pyrrolizin-7a(5H)-yl)methoxy-d2)pyrido[4,3-d]pyrimidin-4-yl)-8-fluoro-2-oxa-6-azabicyclo[5.1.0]octane] | < 50 | 
[2H]C([2H])([2H])Oc1c(F)c(F)c(F)c2cc(N)cc(-c3ncc4c(N5CCCO[C@H]6[C@H](F)[C@H]65)nc(OC([2H])([2H])[C@@]56CCCN5C[C@H](F)C6)nc4c3F)c12 [Example 77, 6,7,8-Trifluoro-4-(8-fluoro-4-((1R,7S,8R)-8-fluoro-2-oxa-6-azabicyclo[5.1.0]octan-6-yl)-2-(((2R,7aS)-2-fluorotetrahydro-1H-pyrrolizin-7a(5H)-yl)methoxy-d2)pyrido[4,3-d]pyrimidin-7-yl)-5-(methoxy-d3)naphthalen-2-amine] | < 50 | 
[2H]C([2H])(Oc1nc(N2CCCC[C@H]3[C@H](F)[C@H]32)c2cnc(-c3cccc4ccc(F)c(C#C)c34)c(F)c2n1)[C@@]12CCCN1C[C@H](F)C2 [Example 78, 7-(8-Ethynyl-7-fluoronaphthalen-1-yl)-8-fluoro-4-((1S,7R,8S)-8-fluoro-2-azabicyclo[5.1.0]octan-2-yl)-2-(((2R,7aS)-2-fluorotetrahydro-1H-pyrrolizin-7a(5H)-yl)methoxy-d2)pyrido[4,3-d]pyrimidine] | < 50 | 
[2H]C([2H])([2H])Oc1c(F)ccc2cncc(-c3ncc4c(N5CCOC[C@H]6[C@H](F)[C@H]65)nc(OC([2H])([2H])[C@@]56CCCN5C[C@H](F)C6)nc4c3F)c12 [Example 84, (1S,7S,8S)-8-Fluoro-2-(8-fluoro-7-(6-fluoro-5-(methoxy-d3)isoquinolin-4-yl)-2-(((2R,7aS)-2-fluorotetrahydro-1H-pyrrolizin-7a(5H)-yl)methoxy-d2)pyrido[4,3-d]pyrimidin-4-yl)-5-oxa-2-azabicyclo[5.1.0]octane] |  | < 50

Further lines, with some results ahead:

IC50 (NCI-H441, pERK HTRF) [nM] | Compound | IC50 (pERK HTRF) [nM]
< 50 | [2H]C([2H])(Oc1nc(N2CCCC[C@H]3[C@H](F)[C@H]32)c2cnc(-c3cccc4cc(F)c(F)c(C#C)c34)c(F)c2n1)[C@@]12CCCN1C[C@H](F)C2 [Example 79, 7-(8-Ethynyl-6,7-difluoronaphthalen-1-yl)-8-fluoro-4-((1S,7R,8S)-8-fluoro-2-azabicyclo[5.1.0]octan-2-yl)-2-(((2R,7aS)-2-fluorotetrahydro-1H-pyrrolizin-7a(5H)-yl)methoxy-d2)pyrido[4,3-d]pyrimidine] | 
< 50 | [2H]C([2H])(F)Oc1c(F)ccc2cccc(-c3ncc4c(N5CCOC[C@H]6[C@H](F)[C@H]65)nc(OC([2H])([2H])[C@@]56CCCN5C[C@H](F)C6)nc4c3F)c12 [Example 80, (1S,7S,8S)-8-Fluoro-2-(8-fluoro-7-(7-fluoro-8-(fluoromethoxy-d2)naphthalen-1-yl)-2-(((2R,7aS)-2-fluorotetrahydro-1H-pyrrolizin-7a(5H)-yl)methoxy-d2)pyrido[4,3-d]pyrimidin-4-yl)-5-oxa-2-azabicyclo[5.1.0]octane] | 
< 50 | [2H]C([2H])([2H])Oc1c(C#N)ccc2cc(N)cc(-c3ncc4c(N5CCOC[C@H]6[C@H](F)[C@H]65)nc(OC([2H])([2H])[C@@]56CCCN5C[C@H](F)C6)nc4c3F)c12 [Example 81, 6-Amino-8-(8-fluoro-4-((1S,7S,8S)-8-fluoro-5-oxa-2-azabicyclo[5.1.0]octan-2-yl)-2-(((2R,7aS)-2-fluorotetrahydro-1H-pyrrolizin-7a(5H)-yl)methoxy-d2)pyrido[4,3-d]pyrimidin-7-yl)-1-(methoxy-d3)-2-naphthonitrile] | 
50 to 500 | [2H]C([2H])(Oc1nc(N2CCCC[C@H]3[C@H](F)[C@H]32)c2cnc(-c3cncc4cc(F)c(F)c(OC)c34)c(F)c2n1)[C@@]12CCCN1C[C@H](F)C2 [Example 83, 7-(6,7-Difluoro-5-methoxyisoquinolin-4-yl)-8-fluoro-4-((1S,7R,8S)-8-fluoro-2-azabicyclo[5.1.0]octan-2-yl)-2-(((2R,7aS)-2-fluorotetrahydro-1H-pyrrolizin-7a(5H)-yl)methoxy-d2)pyrido[4,3-d]pyrimidine] | 
